Assay type in all cases: cell-based, Human
Assay [1] deals with M14 cells. In words: Tumor sphere formation assay, M14. Particulars: 20 µM for 72 h, respect to controls. The protocol:
(§1) For tumor sphere assay, cells were recovered after treatment, counted and seeded in 24-well ultralow attachment surface plates at a density of 5 × 10^2 cells/well and cultured as previously described. After 10 days, spheres were photographed and counted. The percentage of spheres normalized to the number of seeded cells was calculated.
(§2) Figure 4 Analysis of the effect of IS20 and IS21 on cell viability, clonogenic ability and tumor sphere formation in cancer cells. (A) Analysis of cell viability by MTT assay in M14, H1299, HCT116 and MDA-MB-231 cell lines treated with IS20 or IS21 (20 μM for 72 h). The results are reported as “viability of treated cells/viability of control cells (Ctrl)” × 100. (B) Representative images and quantification of clonogenic ability evaluated in M14 and H1299 cells treated with IS20 or IS21 (20 μM for 72 h). Results are reported as percentage of clonogenicity of treated versus control cells. (C) Quantification of tumor sphere formation of M14 and H1299 cells treated with IS20 or IS21 (20 μM for 72 h). Results are reported as percentage of tumor sphere formation of treated versus control. (A-C) Data are reported as mean ± SD of three independent experiments. p-values were calculated between control (Ctrl) and treated cells, ** p < 0.001 and *** p < 0.0001.

Assay [2] deals with M14 cells. Kind of assay: Western blot of LC3B-I/LC3B-II (autophagy), M14. Particulars: 72 h. The protocol: (§3) Western blot analyses of total protein extracts were performed as previously described. Immunodetection was performed using antibodies directed to poly (ADP-ribose) polymerase (PARP; BD Biosciences San Diego, CA, USA), LC3B (Cell Signaling Technology, Danvers, MA), HSP72/73 (Calbiochem, EMD Biosciences, La Jolla, CA), Bcl-2 (SC-509, Santa Cruz Biotechnology Inc, Dallas, TX, USA), Bcl-xL (SC-271121, Santa Cruz Biotechnology Inc), Mcl-1 (SC-12756, Santa Cruz Biotechnology Inc) α-tubulin (Santa Cruz Biotechnology Inc) actin (Sigma-Aldrich, St. Louis, Missouri, USA). Anti-rabbit or anti-mouse immunoglobulin G-horseradish peroxidase-conjugated antibodies (Amersham Biosciences, Freiburg, Germany) were used as secondary antibody. Images were acquired by Image Lab Software (Bio-Rad, Hercules, CA, USA), using a ChemiDoc System instrument (Bio-Rad). The densitometric evaluation was performed using Image J software and normalized with relative controls.
Figure 6 Analysis of autophagosome accumulation in M14 and H1299 cells after treatment with IS20 or IS21. Western blot analysis of LC3B-I and LC3B-II protein levels in (A) M14, and (B) H1299 cell lines untreated (Ctrl) or treated with IS20 or IS21 for 72 h at the indicated concentrations. (C) Western blot analysis of LC3B-I and LC3B-II levels in HL60 and U937 cell lines untreated (Ctrl) or treated with IS20 or IS21 (20 μM for 24 h). (A-C) Reported images are representative of two independent experiments with similar results. HSP72/73, Actin or α-Tubulin are shown as loading and transferring control. […] Ratio of LC3B-II on LC3B-I levels, after normalization on HSP72/73, Actin or α-Tubulin, is quantified by densitometric analysis. (D) (Upper panels) Representative images and (lower panels) relative quantification of fluorescence microscopic analysis of LC3B puncta positive cells in M14 EGFP-LC3B and H1299 EGFP-LC3B transfected cells, treated with IS20 or IS21 (20 µM for 72h). […] Cells with more than 10 puncta were considered autophagy-positive. p-values were calculated between untreated (Ctrl) and treated cells, * p < 0.05.
Background: Immunoblotting shows a protein as a band on a membrane.

The test system of assay [3] is HL60 cells. Kind of assay: Flow cytometry subG1 peak (PI staining), HL60. Particulars: 20 µM for 24 h. The procedure: Flow cytometric analysis (BD Accuri™ C6, BD Biosciences) was performed to evaluate cell cycle distribution by propidium iodide (PI) staining, and cell viability by using the PI dye exclusion assay as previously reported.
Figure 5 Analysis of apoptosis induction by IS20 and IS21 in leukemia, melanoma and NSCLC cells. […] (A-F) Reported images are representative of two independent experiments with similar results. HSP72/73 or α-Tubulin are shown as loading and transferring control. (G) Flow cytometric quantification of cells in the subG1 peak of cell cycle distribution by propidium iodide staining in HL60 cell line treated with IS20 or IS21 (20 μM for 24 h) and in M14, H1299 and MDA-MB-231 cell lines treated with IS20 or IS21 (20 μM for 72 h). Data are reported as mean ± SD of three independent experiments. p-values were calculated between control (Ctrl) and treated cells, * p < 0.05. (H) Flow cytometric quantification of cells in the subG1 peak by propidium iodide staining in M14 and H1299 cell lines treated with IS20 or IS21 (20 μM, 72 h) in presence or absence of the pan caspase inhibitor z-VAD (50 μM). p-values were calculated between treated control (Ctrl) cells, # p < 0.01, ## p < 0.001 or between cells treated with IS20 or IS21 alone or in combination with z-VAD, * p < 0.05, ** p < 0.005. (G-H) Data are reported as mean of two (H) or three (G) experiments ± SD.
A general note: Flow cytometry measures light scatter and fluorescence of single cells or particles in a stream.

Assay [4] deals with H1299 NSCLC cells. Kind of assay: Cell viability by MTT, H1299. Particulars: 20 µM for 72 h, vs control. The procedure: (§4) The effect of compounds on cell viability was performed by measuring 3-[4,5-dimethylthiazol-2-yl]-2,5-diphenyltetrazolium bromide inner salt (MTT, Sigma-Aldrich) dye absorbance (solid tumor cells) or by quantization of ATP present in metabolically active cells using CellTiter-Glo® Luminescent (Promega, Fitchburg, Wisconsin, USA) (hematologic cells) following manifacturer's protocol. To evaluate the cell colony-forming ability, cell suspension from different samples was seeded into 60-mm Petri dishes. After 10 days, colonies were stained with 2% methylene blue in 95% ethanol and counted (1 colony > 50 cells). The surviving fractions were calculated as the ratio of absolute survival of the treated sample/survival of DMSO-treated control sample.
(§5) Figure 4 Analysis of the effect of IS20 and IS21 on cell viability, clonogenic ability and tumor sphere formation in cancer cells. […] (B) Representative images and quantification of clonogenic ability evaluated in M14 and H1299 cells treated with IS20 or IS21 (20 μM for 72 h). […] (C) Quantification of tumor sphere formation of M14 and H1299 cells treated with IS20 or IS21 (20 μM for 72 h). […] (A-C) Data are reported as mean ± SD of three independent experiments. p-values were calculated between control (Ctrl) and treated cells, ** p < 0.001 and *** p < 0.0001.

In assay [5] the test system is M14 cells. Kind of assay: Clonogenic assay, M14. The conditions noted are these: 20 µM for 72 h, respect to controls. The procedure: as §4, §5
Assay [6] concerns H1299 cells. In words: Tumor sphere formation assay, H1299. Particulars: 20 µM for 72 h, respect to controls. The procedure: as §1, §2
In assay [7] the test system is H1299 cells. Kind of assay: Western blot of PARP1 cleavage, H1299. The conditions noted are these: 72 h. The protocol:
as §3, with “The densitometric evaluation was performed using Image J software and normalized with relative controls.” left out
Figure 5 Analysis of apoptosis induction by IS20 and IS21 in leukemia, melanoma and NSCLC cells. […] (G) Flow cytometric quantification of cells in the subG1 peak of cell cycle distribution by propidium iodide staining in HL60 cell line treated with IS20 or IS21 (20 μM for 24 h) and in M14, H1299 and MDA-MB-231 cell lines treated with IS20 or IS21 (20 μM for 72 h). Data are reported as mean ± SD of three independent experiments. p-values were calculated between control (Ctrl) and treated cells, * p < 0.05. […]

Turning to `CCCCCOc1ccc(C2/C(=C(\O)c3ccc4c(c3)CC(C)O4)C(=O)C(=O)N2c2nnc(SCc3ccc(Cl)cc3)s2)cc1OCC` (centres unmarked) [IS21], in assay [1], the “decrease of sphere formation capacity, M14” value was “about 60%”. Further, in assay [2], the “ratio of LC3B-II on LC3B-I / LC3B-II protein level, M14” value is given as “higher level”. Further, the “subG1 peak of cell cycle distribution, HL60” value in assay [3] is given as “presence of subG1 peak”. In addition, in assay [4], the “cell viability H1299” value is recorded as “significant inhibition”. For the same compound, in assay [5], the “decrease of cell colony formation, M14” value was 80-90%. In addition, the “decrease of sphere formation capacity, H1299” value in assay [6] is “about 60%”. The “PARP1 cleavage, H1299” value in assay [7] is recorded as “cleavage of PARP1”.

With `CCCCOc1ccc(C2/C(=C(\O)c3ccc4c(c3)CC(C)O4)C(=O)C(=O)N2c2nnc(SCc3ccc(Cl)cc3)s2)cc1OCC` (centres unmarked) [IS20], the “decrease of sphere formation capacity, M14” value in assay [1] was “about 60%”. In addition, in assay [2], the “ratio of LC3B-II on LC3B-I / LC3B-II protein level, M14” value was “higher level”. Also, in assay [3], the “subG1 peak of cell cycle distribution, HL60” value is recorded as “presence of subG1 peak”. Moreover, the “cell viability H1299” value in assay [4] is listed as “significant inhibition”. In addition, in assay [5], the “decrease of cell colony formation, M14” value was 80-90%. For the same compound, in assay [6], the “decrease of sphere formation capacity, H1299” value is “about 60%”. Moreover, the “PARP1 cleavage, H1299” value in assay [7] is given as “cleavage of PARP1”.

Values taken from paper PMC8899577, “Targeting the anti-apoptotic Bcl-2 family proteins: machine learning virtual screening and biological evaluation of new small molecules” (Theranostics, 2022).
